Laboratory results as given in patent US9261498B2, “Biomarker for sensitivity to mTOR inhibitor therapy in kidney cancer” (The Regents of the University of California, priority 2005, dated 2016).
Entries after “also recorded” stand apart in the source; their conditions may differ.

How the values were obtained:
Assay type in all cases: cell-based, human
HIF-2α = test: Immunoblot of HIF-2α protein in VHL knockdown RCC cells; conditions: 1 and 10 nM CCI-779, 24 hours
Method: (§1) (a) SN12C-CSCG and SN12C-VHLshRNA cell were treated with vehicle, 1 nM or 10 nM of CCI-779 and lysed 24 hours later. Lysates were subjected to immunoblotting for HIF-1α, HIF-2α, GLUT-1, CA-IX, p-eIF4G, p-S6 Ribosomal protein. Equal protein loading was verified using anti-β-actin antibody. (b) HIF-1α expression was probed by immunoblotting in SN12C-MSCV-5′TOP-HIF-1α cDNA (left panel) and SN12C-MSCV-HIF-1α cDNA (tight panel) post 24 hours of vehicle, 1 nM or 10 nM of CCI-779.
(§2) Cells and xenograft tumors were lysed in ECB lysis buffer (see, e.g. Kondo et al., Cancer Cell 1, 237-46 (2002)) or high-detergent buffer (2% SDS), (see, e.g. Chen et al., Nat Med 10, 33-9 (2004)), respectively, supplemented with complete protease and phosphatase inhibitor cocktails (Calbiochem). […] Bound antibody was detected using enhanced chemiluminescence (ECL, Amersham). For VEGF ELISA quantification, cells were plated in 6 well plates (1×10^5 per well). […] Thirty-six hours later, VEGF ELISA (R&D Systems) was performed according to the manufacturer's instructions, using a Fisher Plate reader. […]
Cells and xenograft tumors were lysed in ECB lysis buffer or high-detergent buffer (2% SDS), respectively, supplemented with complete protease and phosphatase inhibitor cocktails (Calbiochem). […] Bound antibody was detected using enhanced chemiluminescence (ECL, Amersham). […]

mTOR = test: Immunoblot of p-S6 and p-eIF4G in cell lysates (mTOR activity)
Method: as §1
FIGS. 4A-4C. Rescue of CCI-779 growth suppression by HIF-1-α and HIF-2-α prolyl hydcroxylase mutants. […] Cell growth was measured by cell counts (n=3). […]
as §2

[1] = tested on: HIF-1α, HIF-2α, GLUT-1, CA-IX; test: Immunoblot of HIF and target proteins in VHL knockdown cells expressing HIF-1α (P564A) / HIF-2α (P405A; P531A) mutants; conditions: SN12C VHL knockdown cells with HIF mutants lacking 5'TOP, 24 hours
Method: FIGS. 4A-4C. Rescue of CCI-779 growth suppression by HIF-1-α and HIF-2-α prolyl hydcroxylase mutants. SN12C-CSCG-VHLshRNA cells stably infected with the prolyl hydroxylation defective cDNA mutants p-Babe-puro-HA-HIF-1α (P564A), HIF-2α (P405A; P531A) or backbone vector were treated with CCI-779 or vehicle and harvested 24 hours later. (a) Lysates were subjected to immunoblotting for HIF-1α, HIF-2α, GLUT-1, CA-IX, p-eIF4G, p-S6 and β-Actin as loading control. (b) SN12C-VHLshRNA, SN12C-VHLshRNA-HIF-1α mutant, SN12C-VHLshRNA-HIF-2α mutant cells (1×10^5) were cultured in 10% serum rich media, in the presence of vehicle, 1 or 10 nM of CCI-779 for 5 days. Cell growth was measured by cell counts (n=3). […]
as §2

CO[C@H]1C[C@@H]2CC[C@@H](C)[C@@](O)(O2)C(=O)C(=O)N2CCCC[C@H]2C(=O)O[C@H]([C@H](C)C[C@@H]2CC[C@@H](OC(=O)C(C)(CO)CO)[C@H](OC)C2)CC(=O)[C@H](C)/C=C(\C)[C@@H](O)[C@@H](OC)C(=O)[C@H](C)C[C@H](C)/C=C/C=C/C=C/1C [CCI-779]
HIF-2α protein levels (HIF-2α): dramatically reduced; also recorded: reduction; also recorded: decrease
phosphorylation of S6 and eIF4G (mTOR; VHL knockdown cells expressing HIF-1α/HIF-2α mutants): decreased phosphorylation
phosphorylation of S6 and eIF4G (mTOR; parental and VHL knockdown cells, 1 and 10 nM CCI-779): reduced phosphorylation; also recorded: reduction in phosphorylation
levels of HIF mutants and downstream targets GLUT-1 and CA-IX [1]: stably expressed in the presence or absence of CCI-779; also recorded: not affected
